Measured values taken from ChEMBL document CHEMBL4610076, “Renoprotective Mono- and Triterpenoids from the Fruit of Gardenia jasminoides” (J Nat Prod, 2020).

Tested on: NRK-52E
Test: Cytoprotective activity against LPS-induced NRK-52E cells assessed as reduction in cell death measured every 5 min for 72 hrs by xCELLigence based RTCA analysis
Format: functional
Conditions: Rattus norvegicus

In the case of `CC1(C)CC(O)CC2=C1C(=O)OC2` (stereo unspecified), the EC50 is reported as > 100 µM.

With `C=C(C)[C@@H]1CC[C@@H]2[C@]3(CC[C@]4(C)[C@@H]([C@@H]5CC[C@H]([C@](C)(O)CO)OC5)CC[C@@]24C)C[C@]13CCC(=O)O` the EC50 was 38.4 µM.

With `CC1=C(CO)C(C)(C)C[C@H](O)[C@@H]1O` the EC50 was > 100 µM.

For `C[C@@H]1CC[C@]2(C(=O)O)CC[C@]3(C)C(=CC[C@@H]4[C@@]5(C)CC[C@H](O)C(C)(C)[C@@H]5CC[C@]43C)[C@@H]2[C@]1(C)O` [POMOLIC ACID], the EC50 was 0.0142 µM.

Compound `COc1cc(/C=C/C(=O)OC[C@H]2O[C@@H](OC[C@H]3C(C)=CC(=O)CC3(C)C)[C@H](O)[C@@H](O)[C@@H]2O)cc(OC)c1O` has an EC50 of 35.6 µM.

`CC1=C(C(=O)O)C(C)(C)C=CC1=O` was tested, and the EC50 was > 100 µM.

In the case of `CC1=CC(=O)CC(C)(C)[C@]1(O)CO`, the EC50 is reported as > 100 µM.

With `C[C@@H]1CC[C@]2(C(=O)O)CC[C@]3(C)C(=CC[C@@H]4[C@@]5(C)CC[C@H](O)[C@@](C)(CO)[C@@H]5[C@H](O)C[C@]43C)[C@@H]2[C@]1(C)O` the EC50 was > 100 µM.

In the case of `C=C(C)[C@@H]1CC[C@@H]2[C@]3(CC[C@]4(C)[C@@H]([C@@H]5CC[C@H]([C@](C)(O)CO)OC5)CC[C@@]24C)C[C@]13CCC(=O)OC`, the EC50 is reported as > 100 µM.

In the case of `C[C@H]1[C@H](C)CC[C@]2(C(=O)O)CC[C@]3(C)C(=CC[C@@H]4[C@@]5(C)CC[C@H](O)[C@@](C)(CO)[C@@H]5CC[C@]43C)[C@H]12`, the EC50 is reported as > 100 µM.

`CC1(C)C[C@H](O)[C@H](O[C@@H]2O[C@H](CO)[C@@H](O)[C@H](O)[C@H]2O)C2=C1C(=O)OC2` was tested, and the EC50 was > 100 µM.

With `CC1=C(C(=O)O)C(C)(C)C[C@H](O)[C@@H]1O` the EC50 was 0.146 µM.

`Cc1ccc2c(c1C)C1=CC[C@@H]3[C@@]4(C)CC[C@H](O)C(CO)(CO)[C@@H]4CC[C@@]3(C)[C@]1(C)C[C@@H]2O` was tested, and the EC50 was > 100 µM.

`CC1=CC(=O)CC(C)(C)[C@H]1CO[C@@H]1O[C@H](CO)[C@@H](O)[C@H](O)[C@H]1O` was tested, and the EC50 was 1.2 µM.

In the case of `C=C(C)[C@@H]1CC[C@@H]2[C@]3(CC[C@]4(C)[C@@H]([C@H](CO)CC/C=C(/C)CO)CC[C@@]24C)C[C@]13CCC(=O)OC`, the EC50 is reported as > 100 µM.

`C=C(C)[C@@H]1CC[C@@H]2[C@]3(CC[C@]4(C)[C@@H]([C@H](CO)CC/C=C(/C)CO)CC[C@@]24C)C[C@]13CCC(=O)O` was tested, and the EC50 was 11.5 µM.

For `CC1=C(CO)C(C)(C)C[C@H](O)[C@H]1O`, the EC50 was > 100 µM.

`CC1(C)CC[C@]2(C(=O)O)CC[C@]3(C)C(=CC[C@@H]4[C@@]5(C)CC[C@H](O)[C@@](C)(CO)[C@@H]5[C@H](O)C[C@]43C)[C@@H]2[C@@H]1O` was tested, and the EC50 was 0.118 µM.

In the case of `CC1(C)CC(=O)C=C(C(=O)O)[C@]1(C)O`, the EC50 is reported as > 100 µM.

With `CO[C@H]1C[C@]2(C)C(=CC[C@@H]3[C@@]4(C)CC[C@H](O)C(CO)(CO)[C@@H]4CC[C@]32C)c2c1ccc(C)c2C` the EC50 was > 100 µM.

For `CC1=C(C(=O)O)C(C)(C)[C@@H](O)[C@H](O)C1`, the EC50 was > 100 µM.

`CC1=CC(=O)CC(C)(C)[C@@H]1CO[C@@H]1O[C@H](CO)[C@@H](O)[C@H](O)[C@H]1O` was tested, and the EC50 was > 100 µM.

With `Cc1c(C)c2c(c(C)c1O)CCC(C)(C(=O)O)O2` (stereo unspecified) [TROLOX] the EC50 was 1.9 µM.

Compound `CC1=CC(=O)CC(C)(C)[C@@H]1CO` has an EC50 of 1.4 µM.

With `C[C@@H]1CC[C@]2(C(=O)O)CC[C@]3(C)C(=CC[C@@H]4[C@@]5(C)CC[C@H](O)C(CO)(CO)[C@@H]5CC[C@]43C)[C@@H]2[C@]1(C)O` the EC50 was 1.6 µM.

In the case of `C=C(CO)[C@@H]1CC[C@@H]2[C@]3(CC[C@]4(C)[C@@H]([C@H](CO)CC/C=C(/C)CO)CC[C@@]24C)C[C@]13CCC(=O)OC`, the EC50 is reported as > 100 µM.

For `CC1=C(CO)C(C)(C)C[C@H](O)[C@@H]1O[C@@H]1O[C@H](CO)[C@@H](O)[C@H](O)[C@H]1O`, the EC50 was > 100 µM.

`CC1=C(C(=O)O[C@@H]2O[C@H](CO)[C@@H](O)[C@H](O)[C@H]2O)C(C)(C)CC[C@@H]1O` was tested, and the EC50 was > 100 µM.

`CC1(C)CC(=O)C=C(C(=O)O)[C@@]1(C)O` was tested, and the EC50 was > 100 µM.

In the case of `C=C1C(CO[C@@H]2O[C@H](COC(=O)/C=C/c3cc(OC)c(O)c(OC)c3)[C@@H](O)[C@H](O)[C@H]2O)=CC(=O)CC1(C)C`, the EC50 is reported as > 100 µM.

Compound `COC(=O)CC[C@]12C[C@]13CC[C@]1(C)[C@@H]([C@H](CO)CC/C=C(/C)CO)CC[C@@]1(C)[C@@H]3CC[C@H]2C(C)(C)O` has an EC50 of 26.8 µM.
